Here are results for nine compounds from ChEMBL document CHEMBL4145621, “4-Substituted Benzenesulfonamides Incorporating Bi/Tricyclic Moieties Act as Potent and Isoform-Selective Carbonic Anhydrase II/IX Inhibitors” (J Med Chem, 2018).

Molecules are shown by their SMILES.

For one test, the target named is Carbonic anhydrase 9 (Homo sapiens, UniProt Q16790). Briefly: Inhibition of recombinant human CA9 preincubated for 15 mins by phenol red dye-based stopped-flow CO2 hydration assay.
The target in the next test is Carbonic anhydrase 1 (Homo sapiens, UniProt P00915). Briefly: Inhibition of recombinant human cytosolic CA1 preincubated for 15 mins by phenol red dye-based stopped-flow CO2 hydration assay.

As usually defined, the Ki is a dissociation constant, usually derived from enzyme kinetics or from competition with a known ligand.

Sequence of Carbonic anhydrase 1 (P00915 whole entry): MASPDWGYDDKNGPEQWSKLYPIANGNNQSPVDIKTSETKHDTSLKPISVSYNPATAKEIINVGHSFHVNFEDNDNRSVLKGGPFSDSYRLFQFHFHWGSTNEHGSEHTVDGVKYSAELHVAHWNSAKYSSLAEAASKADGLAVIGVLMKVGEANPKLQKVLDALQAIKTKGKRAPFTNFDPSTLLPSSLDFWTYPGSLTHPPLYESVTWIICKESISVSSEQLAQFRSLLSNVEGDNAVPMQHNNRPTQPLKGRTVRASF

With `NS(=O)(=O)c1ccc(-n2ncc3c2CCCC3=O)cc1`, at Carbonic anhydrase 9, the Ki is 5.2 nM. In the case of `NS(=O)(=O)c1ccc(Nc2ncc3c(n2)CC(c2ccccc2)CC3=O)cc1` (stereo not given), on Carbonic anhydrase 9, the Ki amounted to 0.79 nM. As for `NS(=O)(=O)c1ccc(-n2ncc3c2-c2cnc(-c4ccccc4)nc2CC3)cc1`, the Ki was 7.3 nM at Carbonic anhydrase 9 and greater than 10000 nM at Carbonic anhydrase 1. As for `CC1(C)CC(=O)c2cnn(-c3ccc(S(N)(=O)=O)cc3)c2C1`, the Ki on Carbonic anhydrase 9 is 0.88 nM. For the compound `CC1(C)CC(=O)c2cnc(Nc3ccc(S(N)(=O)=O)cc3)nc2C1`, the Ki at Carbonic anhydrase 9 stood at 0.89 nM. The same measure, in the same setting: the figure for `NS(=O)(=O)c1ccc(-n2ncc3c2CC(c2ccccc2)CC3=O)cc1` (stereo not given) is 0.73 nM. For `Cc1ncc2c(n1)CCc1cnn(-c3ccc(S(N)(=O)=O)cc3)c1-2`, the Ki at Carbonic anhydrase 9 was determined as 7 nM. Still for that read-out and setting: the figure for `NS(=O)(=O)c1ccc(-n2ncc3c2-c2cncnc2CC3)cc1` is 0.57 nM. Regarding `NS(=O)(=O)c1ccc(Nc2ncc3c(n2)CCCC3=O)cc1`, the Ki at Carbonic anhydrase 9 came to 0.55 nM.
